According to publication PMC12152147, “DDB1 engagement defines the selectivity of S656 analogs for cyclin K degradation over CDK inhibition” (EMBO Reports, 2025):
pIC50: −log10 of the molar value. Read-outs that look alike come from different tables or passages of the source.

Key:
CDK9/CyclinT = biological target: T1, CDK9/CyclinT (Homo sapiens, UniProt P50750); test: CDK9/CyclinT in vitro kinase activity, single concentration 1 μM; type: biochemical; conditions: single concentration 1 μM
T1 construct: purchased BPS Bioscience 79628
T1 sequence (P50750 whole entry): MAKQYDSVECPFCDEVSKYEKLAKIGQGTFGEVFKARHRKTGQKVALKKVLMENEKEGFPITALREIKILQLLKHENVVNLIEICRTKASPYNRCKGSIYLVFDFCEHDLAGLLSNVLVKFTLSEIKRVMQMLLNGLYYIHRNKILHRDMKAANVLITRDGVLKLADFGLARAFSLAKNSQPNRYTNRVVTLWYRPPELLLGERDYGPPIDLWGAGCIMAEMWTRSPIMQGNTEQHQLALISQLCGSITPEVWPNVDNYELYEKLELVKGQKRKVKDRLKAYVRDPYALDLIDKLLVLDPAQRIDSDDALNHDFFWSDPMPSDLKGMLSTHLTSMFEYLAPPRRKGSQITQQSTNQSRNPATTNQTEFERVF
T1 sequence (O60563 whole entry partner): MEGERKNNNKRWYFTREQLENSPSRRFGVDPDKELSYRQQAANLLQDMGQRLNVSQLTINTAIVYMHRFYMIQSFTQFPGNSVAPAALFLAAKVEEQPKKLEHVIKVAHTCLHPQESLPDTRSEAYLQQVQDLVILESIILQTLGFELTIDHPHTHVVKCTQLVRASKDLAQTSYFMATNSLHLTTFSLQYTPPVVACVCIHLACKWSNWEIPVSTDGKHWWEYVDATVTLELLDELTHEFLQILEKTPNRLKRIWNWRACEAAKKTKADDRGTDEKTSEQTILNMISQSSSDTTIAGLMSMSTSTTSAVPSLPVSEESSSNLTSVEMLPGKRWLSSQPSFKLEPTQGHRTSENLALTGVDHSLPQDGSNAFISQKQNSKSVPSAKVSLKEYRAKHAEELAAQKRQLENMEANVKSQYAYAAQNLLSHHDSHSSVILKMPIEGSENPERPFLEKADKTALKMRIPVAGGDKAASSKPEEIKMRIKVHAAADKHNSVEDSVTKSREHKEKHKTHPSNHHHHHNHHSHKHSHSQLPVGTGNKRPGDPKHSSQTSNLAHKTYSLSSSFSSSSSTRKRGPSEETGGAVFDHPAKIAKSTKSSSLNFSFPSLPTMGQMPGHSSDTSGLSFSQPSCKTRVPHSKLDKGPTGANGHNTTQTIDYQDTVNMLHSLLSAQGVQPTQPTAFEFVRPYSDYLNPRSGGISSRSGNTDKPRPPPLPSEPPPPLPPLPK
Procedure: (§1) Kinase activity was assessed using the kinase assay kits from BPS Bioscience for CDK1, CDK9 and CDK12 with Kinase Glo MAX in duplicates. Compounds were tested at a single concentration of 1 μM for CDK1 and CDK9 activity, and in a dilution ranging from 0.64 nM to 50 μM for CDK12 activity. Chemiluminescence was read using the Neo Synergy BioTek plate reader.

CDK1 = biological target: T2, CDK1 (Homo sapiens, UniProt P06493); test: CDK1 in vitro kinase activity, single concentration 1 μM; type: biochemical; conditions: single concentration 1 μM
T2 construct: purchased BPS Bioscience 79597
T2 sequence (P06493 whole entry): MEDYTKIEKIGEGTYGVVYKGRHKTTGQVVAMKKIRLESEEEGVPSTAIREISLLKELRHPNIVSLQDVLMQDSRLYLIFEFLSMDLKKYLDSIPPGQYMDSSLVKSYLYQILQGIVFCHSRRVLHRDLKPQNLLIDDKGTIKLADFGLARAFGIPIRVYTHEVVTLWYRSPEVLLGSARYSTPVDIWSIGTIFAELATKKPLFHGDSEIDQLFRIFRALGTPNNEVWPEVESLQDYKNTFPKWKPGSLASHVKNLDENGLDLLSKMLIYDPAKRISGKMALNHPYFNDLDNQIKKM
T2 sequence (P14635 whole entry partner): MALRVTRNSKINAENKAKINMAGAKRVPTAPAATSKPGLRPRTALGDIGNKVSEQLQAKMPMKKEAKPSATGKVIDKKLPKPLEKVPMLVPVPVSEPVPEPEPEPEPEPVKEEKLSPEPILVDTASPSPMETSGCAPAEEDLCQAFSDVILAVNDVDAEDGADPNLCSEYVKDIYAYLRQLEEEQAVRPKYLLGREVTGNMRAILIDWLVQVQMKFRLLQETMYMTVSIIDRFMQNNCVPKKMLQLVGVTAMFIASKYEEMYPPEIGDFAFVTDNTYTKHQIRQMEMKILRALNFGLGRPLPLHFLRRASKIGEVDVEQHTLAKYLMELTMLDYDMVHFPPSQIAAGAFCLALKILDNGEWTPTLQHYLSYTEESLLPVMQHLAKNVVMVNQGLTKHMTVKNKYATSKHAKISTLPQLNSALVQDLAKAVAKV
Procedure: as §1

OCI-AML5 cells = test: Dose-response proliferative assay in OCI-AML5 (4 days, CellTiterGlo); type: cell-based, H. sapiens; conditions: read-out: IC50 in AML5
Procedure: Cell lines were purchased from the ATCC or donated from collaborators. OCI-AML5 cell line was cultured in αMEM, 10% heat-inactivated FBS supplemented with 10 ng/mL GM-CSF, OCI-AML1, U2OS and HEK293T cell lines in DMEM, 10% heat-inactivated FBS. Cells were maintained at 37 °C in 5% CO2 atmosphere.
Dose-response assays in primary AML specimens were performed as in chemical screen (see above) with the exception that compounds were tested in serial dilution (8 dilutions, 1:4, 10 μM down to 0.5 nM). Dose-response assays in OCI-AML5 cell line were conducted similarly with the following modifications: 300 cells per well were seeded in 50 μL of cell line media and cell viability was evaluated after 4 days in culture.

[1] = test system: OCI-AML5 cells expressing shRNAs targeting CDK1, 2, 4, 7, 9, cyclin K; test: Dose response in OCI-AML5 expressing shRNAs targeting CDK1, 2, 4, 7, 9, cyclin K or control; type: cell-based, H. sapiens; conditions: for Class: class from shRNA IC50 profile and cyclin K-eGFP degradation; for class based on cellular selectivity: IC50 in shRNA OCI-AML5 cells and cyclin KeGFP degradation
cyclin KeGFP = test: Cyclin KeGFP reporter system (eGFP/mCherry MFI by flow cytometry);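 further: 10 μM compound for 3 h relative to DMSO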; type: cell-based, H. sapiens; conditions: cyclin K-eGFP reporter
Procedure: We used the cyclin KeGFP reporter system previously described (Słabicki et al, [2020]). Lentiviral vector (Addgene plasmid #169930) was used to infect OCI-AML5 at a MOI of 5 and were selected with puromycin. Cells were seeded in methylcellulose and let grown as colonies for 10 days. Colonies were isolated, expanded and selected based on cyclin KeGFP fluorescence in presence and absence of cyclin K degrader molecules. Selected G7 clone was used for all reported experiments. Fluorescent signal of cyclin KeGFP and mCherry were quantified by flow cytometry (BD LSRII) in each condition and the geometric mean fluorescence intensity (MFI) were calculated using FlowJo (BD Biosciences). The ratio of eGFP to mCherry was normalized to DMSO-treated cells.

[2] = test system: OCI-AML5 cells expressing shRNA targeting CUL4A or CUL4B; test: Dose response in OCI-AML5 expressing shRNAs targeting CUL4A, CUL4B or control; type: cell-based, H. sapiens; conditions: ratio of IC50 in shCUL4A vs shCTRL OCI-AML5 cells
[3] = Homo sapiens, OCI-AML-5, OCI-AML5 cells
[4] = Homo sapiens, OCI-AML-5, OCI-AML5 expressing shRNA CCNK (cyclin K), read-out: IC50 shRNA CCNK
[5] = Homo sapiens, OCI-AML-5, OCI-AML5 expressing shRNA CDK1, read-out: IC50 shRNA CDK1
[6] = Homo sapiens, OCI-AML-5, OCI-AML5 expressing shRNA CDK2, read-out: IC50 shRNA CDK2
[7] = Homo sapiens, OCI-AML-5, OCI-AML5 expressing shRNA CDK4, read-out: IC50 shRNA CDK4
[8] = Homo sapiens, OCI-AML-5, OCI-AML5 expressing shRNA CDK7, read-out: IC50 shRNA CDK7
[9] = Homo sapiens, OCI-AML-5, OCI-AML5 expressing shRNA CDK9, read-out: IC50 shRNA CDK9
[10] = OCI-AML5 expressing shRNA CCNK (cyclin K), read-out: IC50 shRNA CCNK
[11] = OCI-AML5 expressing shRNA CDK1, read-out: IC50 shRNA CDK1
[12] = OCI-AML5 expressing shRNA CDK2, read-out: IC50 shRNA CDK2
[13] = OCI-AML5 expressing shRNA CDK4, read-out: IC50 shRNA CDK4
[14] = OCI-AML5 expressing shRNA CDK7, read-out: IC50 shRNA CDK7
[15] = OCI-AML5 expressing shRNA CDK9, read-out: IC50 shRNA CDK9

Compound | inhibition at 1 µM (CDK9/CyclinT) [%] | inhibition at 1 µM (CDK1) [%] | pIC50 (OCI-AML5 cells; [3]) | pIC50 [1, 4] | pIC50 [1, 5] | pIC50 [1, 6] | pIC50 [1, 7] | pIC50 [1, 8] | pIC50 [1, 9] | Class [1] | % degradation cyclin K-eGFP (cyclin KeGFP) [%] | Ratio shCUL4A/shCTRL [2] | also measured
[N-]=[N+]=Nc1ccc(CC(=O)Nc2ncc(SCc3cccnc3)s2)cc1 [UOM-005062] | 99 | 63 | 5.66 | 6.04 | 5.89 | 5.64 | 5.58 | 5.60 | 5.83 | mixed 1-2 | 45 | 1.35 | –
O=C(Cc1ccccc1)Nc1ncc(SCc2cccnc2)s1 [UOM-005190] | – | – | – | – | – | – | – | – | – | 2 | 26 | 1.19 | % CDK9 inhibition (CDK9/CyclinT): 24%; % CDK1 inhibition (CDK1): 79%; pIC50 (OCI-AML5 cells; OCI-AML5 cells): 5.62; pIC50 [1, 10]: 5.60; pIC50 [1, 11]: 6.09; pIC50 [1, 12]: 5.57; pIC50 [1, 13]: 5.48; pIC50 [1, 14]: 5.54; pIC50 [1, 15]: 5.78
O=C(Cc1ccc(F)cc1)Nc1ncc(SCc2cccnc2)s1 [UOM-005197] | 57 | 59 | 5.55 | 5.45 | 5.87 | 5.57 | 5.47 | 5.47 | 5.74 | 2 | 24 | 1.15 | class based on cellular selectivity [1]: Class II
O=C(Cc1ccc(Cl)cc1)Nc1ncc(SCc2cccnc2)s1 [UOM-005198] | 32 | 51 | 5.53 | 5.52 | 5.89 | 5.56 | 5.47 | 5.47 | 5.68 | 2 | 33 | 1.12 | class based on cellular selectivity [1]: Class II
O=C(Cc1ccc(Br)cc1)Nc1ncc(SCc2cccnc2)s1 [UOM-005199] | 100 | 60 | 5.59 | 5.83 | 5.93 | 5.53 | 5.55 | 5.55 | 5.75 | mixed 1-2 | 64 | 0.67 | –
O=C(Cc1ccc(I)cc1)Nc1ncc(SCc2cccnc2)s1 [UOM-005200] | 62 | 87 | 5.98 | 6.43 | 5.97 | 5.89 | 5.96 | 5.82 | 5.99 | 1 | 77 | 2.36 | class based on cellular selectivity [1]: Class I (effective cyclin K MGDs (decreased IC50 in cyclin K depleted cells only, and >65% degradation of cyclin KeGFP))
COc1ccc(CC(=O)Nc2ncc(SCc3cccnc3)s2)cc1 [UOM-005201] | 54 | 69 | 5.52 | 5.70 | 5.99 | 5.54 | 5.47 | 5.51 | 5.86 | 2 | 55 | 0.99 | class based on cellular selectivity [1]: Class II
O=C(Cc1ccc(NC(=O)C23CC4CC(CC(C4)C2)C3)cc1)Nc1ncc(SCc2cccnc2)s1 [UOM-005477] | – | – | – | – | – | – | – | – | – | 2 | 6 | 0.9 | % CDK9 inhibition (CDK9/CyclinT): 81%; pIC50 (OCI-AML5 cells; OCI-AML5 cells): 5.90; pIC50 [1, 10]: 5.99; pIC50 [1, 11]: 6.13; pIC50 [1, 12]: 5.96; pIC50 [1, 13]: 5.92; pIC50 [1, 14]: 6.03; pIC50 [1, 15]: 6.23
O=C(Cc1ccc(NC(=O)c2ccccc2)cc1)Nc1ncc(SCc2cccnc2)s1 [UOM-005478] | 82 | – | 5.87 | 5.97 | 6.26 | 5.97 | 5.98 | 5.99 | 6.45 | 2 | 8 | 0.95 | –
O=C(Cc1ccccn1)Nc1ncc(SCc2cccnc2)s1 [UOM-005566] | 15 | – | 5.18 | 5.22 | 5.41 | 5.15 | 5.05 | 5.12 | 5.26 | 2 | 4 | 1.07 | –

Now from value to compound, other results behind:

inhibition at 1 µM (CDK9/CyclinT) [%] | inhibition at 1 µM (CDK1) [%] | pIC50 (OCI-AML5 cells; [3]) | pIC50 [1, 4] | pIC50 [1, 5] | pIC50 [1, 6] | pIC50 [1, 7] | pIC50 [1, 8] | pIC50 [1, 9] | Compound | Class [1] | % degradation cyclin K-eGFP (cyclin KeGFP) [%] | Ratio shCUL4A/shCTRL [2] | also measured
100 | 90 | 9.00 | 8.96 | 8.97 | 8.97 | 8.98 | 8.78 | 9.14 | CC(=O)N[C@@H]1CCC[C@H](C(=O)Nc2cc(-c3cnn4c3CC(C)(C)C4)c(Cl)cn2)C1 [AZD4573, reference compound] | 2 | – | – | –
71 | – | 5.41 | 5.43 | 5.38 | 5.33 | 5.41 | 5.52 | 5.55 | O=C(Nc1ncc(SCc2cccnc2)s1)C1CCNCC1 [UOM-005283] | – | 4 | 0.91 | –
64 | – | 5.15 | 5.27 | 5.47 | 5.27 | 5.35 | 5.54 | 5.52 | Cl.Cl.O=C(CC1CCNC1)Nc1ncc(SCc2cccnc2)s1 (stereo not shown) [UOM-005300] | 2 | 5 | 1.07 | –
73 | – | 5.13 | 5.27 | 5.49 | 5.46 | 5.40 | 5.39 | 5.32 | C=C(C(=O)Nc1ncc(SCc2cccnc2)s1)c1ccc2c(c1)[nH]c1ccc(Cl)cc12 [UOM-005447] | 2 | 63 | 0.72 | –
59 | – | 5.91 | 6.00 | 6.12 | 6.03 | 5.97 | 6.02 | 6.26 | O=C(Cc1ccc(NC(=O)c2ccccn2)cc1)Nc1ncc(SCc2cccnc2)s1 [UOM-005474] | 2 | 5 | 1.03 | –
20 | 34 | < 5.00 | < 5.00 | 5.49 | < 5.00 | < 5.00 | < 5.00 | 5.23 | O=C(Cc1cnccn1)Nc1ncc(SCc2cccnc2)s1 [UOM-005482] | 2 | 0 | – | –
90 | – | 5.73 | 6.06 | 6.10 | 5.52 | 5.66 | 5.69 | 6.04 | O=C(Cc1ccc(N2CCCCC2)cc1)Nc1ncc(SCc2cccnc2)s1 [UOM-005607] | mixed 1-2 | 30 | 0.9 | –
